Each structure is given as a SMILES string. pIC50: −log10 of the molar value.

In this experiment the target is T1, PhoP (Salmonella enterica I, UniProt A6XC03).
T1 sequence (A6XC03 whole entry): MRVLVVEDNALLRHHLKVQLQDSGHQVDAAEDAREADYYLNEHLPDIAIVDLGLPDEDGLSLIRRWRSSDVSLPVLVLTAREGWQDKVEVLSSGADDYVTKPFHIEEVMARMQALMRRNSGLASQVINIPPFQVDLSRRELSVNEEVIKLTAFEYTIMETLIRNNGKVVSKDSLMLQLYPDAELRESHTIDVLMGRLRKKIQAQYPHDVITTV
Nature of the experiment: Inhibition Assay. The text has this: Inhibition of a protein-protein activity by EMSA assay.
Turning to `O=S(=O)(O)c1ccc2c(N=Nc3c(O)ccc4ccccc34)cccc2c1` [NSC45576, 2], the pIC50 – broadly, −log10 of the IC50, conventionally taken in molar units – is 4.92.
For `CC12CCC(=O)C=C1CCC1C2CCC2(C)C(C(=O)COS(=O)(=O)c3ccc(Br)cc3)CCC12` (stereo not drawn) [NSC88915, 6], the pIC50 is 4.77.
In turn, `CN(C)CCC(=O)C1(O)CCC2C3CC=C4CC(O)CCC4(C)C3CCC21C` (stereo not drawn) [NSC48630, 3] showed a pIC50 of 5.44.
In turn, `O=C(C[n+]1ccc2ccccc2c1)c1ccc2ccc3ccccc3c2c1` [NSC35489, 4] had a pIC50 of 1.85.
`c1ccc(C[n+]2cccc(-c3cc4ccccc4[nH]3)c2)cc1` [NSC118806, 7] showed a pIC50 of 3.96.
The figure for `N#Cc1ccc(OC(=O)c2ccc(NC(=N)N)cc2)cc1` [NSC168197, 8] is 3.55; for `CC(C)c1ccc2c(c1)CCC1C(C)(CN)CCCC21C` (stereo not drawn) [NSC65238, 5] it is 4.70; for `O=C1c2ccccc2C(=O)c2c1ccc(C(=O)O)c2-c1cccc2ccccc12` [NSC9608, 1] it is 1.96.
